What all share (type): cell-based, human
The test system of assay [1] is U937 cells. Description: CD11b surface differentiation marker expression (flow cytometry). To be noted: 1 mM SB, 100 nM FP, 48 h. How it is done:
Differentiation studies. Expression of the monocytic differentiation marker, CD11b, was monitored by direct immunofluorescence staining and flow cytometric analysis as previously described [Freemerman et al. 1997]. Following drug treatment, suspension and adherent cells were enumerated by a Coulter Counter and 2×10^6 cells were pelleted by centrifugation. The supernatant was aspirated and the cells were resuspended in 300 μl of ice-cold PBS. Two 100 μl aliquots from each sample were then combined with either phycoerythrin-1 (10 μl) or the IgG control. Samples were incubated for 20 min at 4° C. and diluted in PBS (1 ml). Sample data were collected using a Becton Dickinson FACScan flow cytometer and analyzed with Verity Winlist Software (Verity; Topsham, Me.). […] U937 cells were transfected with a full-length p21^WAF1/CIP1 promoter (base pairs 1-2326) as described by Chinery et al. [Chinery et al. 1997] utilizing electroporation (Eppendorf Multiporator, 620V, 60 μs) in hypoosmolar buffer. In each experiment, pSV-βgal (Promega), containing the β-galactosidase gene under the control of the constitutively active SV40 promoter and enhancer, was co-transfected with the luciferase reporter at a ratio of 1:5 (w/w) to normalize for transfection efficiency. The cells were incubated overnight in complete media and treated with 10 nM PMA, 100 nM FP, or 10 nM PMA/100 nM FP for 3 or 6 h. At indicated times, cells were washed in serum-free media, resuspended in 0.25M Tris-HCl pH 7.8, lysed by rapid freeze-thaw, centrifuged and the supernatant frozen at −70° C. Lysates (20 μL) were mixed with luciferase assay reagent (100 μL) and monitored for 20 seconds in a luminometer (Monolight 2010). For β-galactosidase activity, lysates (50 μL) were mixed in triplicate with an equal volume of […] assay buffer (2×) in a 96-well plate and incubated overnight. The reaction was terminated by addition of NaCO3 and absorbance was measured at 405 nm in a Vmax plate reader (Molecular Devices). Activity was determined by comparison to a standard curve. […]
A general note: Flow cytometry measures light scatter and fluorescence of single cells or particles in a stream.

Assay [2] deals with U937 cells. Briefly: cell cycle analysis (propidium iodide, flow cytometry). How it is done: Cell Cycle Analysis. Following drug treatment, cells were pelleted by centrifugation at 500 g×6 min, and resuspended in 70% ethanol. The cells were incubated on ice for at least 1 h and resuspended in 1 ml cell cycle buffer (0.38 mM Na-Citrate, 0.5 mg/ml RNase A, and 0.01 mg/ml propidium iodide) at a concentration of 10×10^5 cells/ml, stored in the dark at 4 C until analysis (24 h), using a Becton-Dickinson FACScan flow cytometer and Verity Winlist software (Verity Software, Topsham, Me.).

Another assay concerns Bcl-2. Briefly: Western analysis of Bcl-2 cleavage in U937 cells. As to conditions: SB 1 mM, FP 100 nM, 12 and 24 hr. The procedure:
(§1) Alternatively, whole cell-pellets were washed twice in PBS, resuspended in PBS, and lysed by the addition of I volume of loading buffer. Lysates were boiled for 10 min, centrifuged at 12,800 g for 5 min and quantified using Coomassie protein assay reagent (Pierce, Rockfold, Ill.). 25 μg of total proteins per point were separated by SDS-PAGE and electro-blotted to nitrocellulose. The blots were blocked in 5% non-fat milk in PBS-T and probed for 1 h with the appropriate dilution of primary antibody. Blots were washed 3×10 min in PBS-T and then incubated with a 1:2000 dilution of peroxidase-conjugated secondary antibody for 1 h at room temperature. Blots were again washed 3×10 min in PBS-T and then developed by enhanced chemiluminesence. Where indicated, blots were stripped and re-probed with antibodies directed against actin. […]

Another assay relates to pRb. Description: Western analysis of underphosphorylated pRb in U937 cells. As to conditions: for levels of underphosphorylated pRb: FP 100 nM, SB 1 mM, 12 or 24 hr. How it is done: Western analysis. Equal quantities of protein (15 μg/condition for MAPK, 40 μg/condition for cytochrome c, or 25 μg/condition) were separated by SDS-PAGE [underphosporylated pRB (7.5%), poly(ADP-ribose)polymerase or PARP (8.0%), p44/p42 MAPK (10%), p21, p27, procaspase 3 (12%), and cytochrome c (15%)] and electroblotted onto nitrocellulose. Western analysis of p44/p42 MAPK protein was performed according to the manufacturer's instructions (New England Biolabs); otherwise, studies were performed as previously described [Wang et al, 1998]. Briefly, U937 cells (5×10^6) were pelleted by centrifugation, resuspended in 50 μl PBS, lysed by the addition of 2× Laemmli buffer and boiled for 5 min. Proteins were quantified with Coomassie protein assay reagent. Blots were blocked in PBS-T/5% milk, washed twice with PBS-T, and incubated overnight at 4° C. with the appropriate primary antibody. The blots were washed with PBS-T and incubated with a horseradish-peroxidase conjugated secondary antibody diluted appropriately in PBS-T/5% mill. Following incubation, blots were developed by enhanced chemiluminescence exposure to Kodak X-OMAT film (Eastman Kodak Co., Rochester, N.Y.) and reprobed with antibodies directed against actin to control for equal loading of protein.
(§2) Alternatively, whole cell-pellets were washed twice in PBS, resuspended in PBS, and lysed by the addition of I volume of loading buffer. Lysates were boiled for 10 min, centrifuged at 12,800 g for 5 min and quantified using Coomassie protein assay reagent (Pierce, Rockfold, Ill.). 25 μg of total proteins per point were separated by SDS-PAGE and electro-blotted to nitrocellulose. The blots were blocked in 5% non-fat milk in PBS-T and probed for 1 h with the appropriate dilution of primary antibody. Blots were washed 3×10 min in PBS-T and then incubated with a 1:2000 dilution of peroxidase-conjugated secondary antibody for 1 h at room temperature. Blots were again washed 3×10 min in PBS-T and then developed by enhanced chemiluminesence. Where indicated, blots were stripped and re-probed with antibodies directed against actin.
(§3) Primary antibodies for both p21^WAF1/CIP1 and p27^KIP1 (Transduction Laboratories, Lexington, Ky.) were used in a 1:1000 dilution; PARP (1:1000; Oncogene Research Products, Cambridge, Mass.); pro-caspase 3 (1:1000; Transduction Laboratories); cytochrome c (1:2000; Pharmingen); bcl-2 (1:2000; DAKO, Denmark); bax (1:1000; Santa Cruz Biotechnology, Inc., Santa Cruz, Calif.); bid (1:1000; Cell Signaling, Beverly, Mass.); XIAP (1:1000; Cell Signaling); Mcl-1 (1:1000; Pharmingen); bak (1:1000; Calbiochem); c-Myc (1:1000; Pharmingen, San Diego, Calif.); actin (1:2000; Sigma Chemicals, St. Louis, Mo.); cyclins-D1, -A and -E (1:1000; Pharmingen); pRb, underP-pRb, pRb-CDK2 and pRb-CDK4 (all 1:1000; Pharmingen); Ac-H3 and Ac-H4 (both 1:1000; Upstate Biotechnology, Lake Placid, N.Y.); E2F-1 (Upstate Biotechnology). Secondary antibodies conjugated to horseradish peroxidase were obtained from Kirkegaard and Perry Laboratories, Inc. (Gaithersburg, Md.). Coomassie protein assay reagent was purchased from Pierce (Rockford, Ill.), and an enhanced chemiluminescence kit was obtained from New England Nuclear (Boston, Mass.). The pan-caspase inhibitor BOC-D-fmk and the caspase 8 inhibitor Z-IETD-fmk were purchased from Enzyme System Products (Livermore, Calif.) All other chemicals or reagents were purchased from Sigma.

The subject of another assay is Mcl-1. Description: Western analysis of Mcl-1 in U937 cells. As to conditions: 100 nM FP, 1 mM SB, 12 and 24 hours. How it is done: as §1
The next assay deals with cyclin D1. Briefly: Western analysis of cyclin D1 in U937 cells. How it is done: as §2
as §3, with “The pan-caspase inhibitor BOC-D-fmk and the caspase 8 inhibitor Z-IETD-fmk were purchased from Enzyme System Products (Livermore, Calif.) All other chemicals or reagents were purchased from Sigma.” left out

We go through two molecules from patent US20050004007A1, “Promotion of adoptosis in cancer cells by co-administration of cyclin dependent kinase inhibitiors and cellular differentiation agents” (priority 2000, published 2005).

`CCCC(=O)[O-].[Na+]` [SB, sodium butyrate]: the “expression of the differentiation marker CD11b” value in the assay on U937 cells [1] was “increased expression of the differentiation marker CD11b”. The “percentage of cells arresting in G0/G1” value with U937 cells [2] (24 h, 1 mM SB) is 48.1%; in the assay with U937 cells [2] (48 h, 1 mM SB or 100 nM FP), 81.6%. Also, in the assay on Bcl-2, the “cleavage of Bcl-2 (rapidly migrating species)” value was “faintly discerned”. Also, the “levels of underphosphorylated pRb” value in the assay on pRb is recorded as “substantial increase”. Moreover, the “levels of Mcl-1” value in the assay on Mcl-1 was “minimal effects”. Further, the “cyclin D1 protein” value in the assay on cyclin D1 (SB 1 mM 24 hours, FP and SB 12 hours) is “moderate decrease”.

For `CN1CC[C@H](c2c(O)cc(O)c3c(=O)cc(-c4ccccc4Cl)oc23)[C@H](O)C1` [FP, Flavopiridol], in the assay with U937 cells [1], the “expression of the differentiation marker CD11b” value was “not accompanied by an increase in CD11b expression”. Moreover, in the assay on U937 cells [2] (24 h after administration of SAHA, FP or both), the cell cycle distribution result was “increase in the G0/G1 population”. Moreover, the “percentage of cells arresting in G0/G1” value with U937 cells [2] (48 h, 1 mM SB or 100 nM FP) is recorded as roughly 53%. Besides, in the assay on Bcl-2, the “cleavage of Bcl-2 (rapidly migrating species)” value was “faintly discerned”. Further, the “full-length underphosphorylated pRb” value in the assay with pRb (10 nM PMA, FP 50, 80 or 100 nM, 24 h) is “minimal effect”. Moreover, the “levels of underphosphorylated pRb” value with pRb is recorded as “did not affect”. In addition, the “levels of Mcl-1” value in the assay on Mcl-1 was “reductions in levels of Mcl-1”. In addition, in the assay on cyclin D1 (12 and 24 hours treatment), the “FP concentration at which reduction in cyclin D1 levels was first observed” value was 100 nM and the “FP concentration at which reduction in cyclin D1 levels was virtually complete” value is on record as 300 nM.
